≈ marks a conversion by molar mass, not a printed value. Where a name gives a salt, the structure may show the parent alone.
Key:
physchem = conditions: 25 °C, thermodynamic from solid
[1] = Batch crystallization with Zorbax, mother liquor concentration via HPLC; type: physicochemical; conditions: after batch crystallization of saturated isopropyl alcohol solution with Zorbax, stirred 6 h at 25° C.; effective solubility
[2] = Capillary XRPD with Zorbax, critical minimum concentration for crystallization; conditions: isopropyl alcohol solutions in capillaries containing functionalized Zorbax
Excerpt: In order to test this hypothesis, solutions of successively lower concentrations were loaded into capillaries containing the functionalized Zorbax® and tested for the presence of crystals. […] The tubes were made of glass #50, with a 1.0 mm OD, wall thickness of 0.01 mm and length of 80 mm. The capillary tubes were packed with Zorbax® or CPG material by scooping powder into the tip, placing the capillary in a larger diameter glass pipette, and tapping to allow gravity to act on the powder to settle. Once packed, the tubes were suctioned at the open end with a 1-mL plastic syringe, using a small piece of rubber tubing to adapt the fit. The filled capillary was then immediately dipped into the undersaturated API solutions to allow the solution to fill the tube. Molten wax was used to plug the end of the capillary, and the tip was then heated in a Bunsen burner flame to seal. Additional capillaries were filled with the API solution and dry commercial API alone.
To check the hypothesis that there exists a critical minimum undersaturation below which the Zorbax® cannot induce crystallization, solutions of successively decreasing concentrations were tested with the capillary method.

solubility (physchem; water)	Mother liquor concentration [1]	solubility (physchem; organic solvent or mixture)	Concentration range from XRPD (critical minimum concentration for crystallization to occur) [2]	Compound
15.5 mg/mL (≈ 103 mM)	–	–	–	CC(=O)Nc1ccc(O)cc1 [Acetaminophen]
–	66.8 mg/mL	90 mg/mL (≈ 500 mM)	65000 to 70000 µg/mL	CC(=O)Oc1ccccc1C(=O)O [Aspirin]
–	–	–	25000 to 27000 µg/mL	CN(C)CCOC(c1ccccc1)c1ccccc1 [Diphenhydramine hydrochloride]
–	33.2 mg/mL	46.5 mg/mL (≈ 381 mM)	30000 to 35000 µg/mL	NC(=O)c1cccnc1 [Nicotinamide]
